# Test results: article PMC12070228, “Investigations of Enteric-Coated Tablet Propyl Gallate-Induced Nephrotoxicity in Beagles as well as Human and Dog Renal Proximal Tubule Epithelial Cells” (ACS Pharmacology & Translational Science, 2025)
# Columns and labels:
# human RPTECs = assay: GSH-Glo glutathione assay; format: cell-based; settings: ~48 h, high concentrations
# Experimental: (§1) Frozen RPTECs vials were removed from liquid nitrogen storage and placed in a 37 °C water bath until the contents were completely thawed. The cells were gently resuspended and dispensed into a cell culture flask at a seeding density of ∼7500 cells/cm^2. The flask was placed in a 37 °C, 5% CO2 incubator. Cell cultures were given fresh medium the following morning and then every other day until the cell culture was approximately 90% confluent. When the cell culture was 90% confluent, medium was removed and the cells were rinsed with warmed PBS. Cells were harvested and split into new flasks based on a cell density of 7500 cells/cm^2. Cells were incubated at 37 °C for 3 days, with fresh medium added each day. Cells were harvested and diluted with growth medium to a density of 200,000 cells/mL. 100 μL of cell suspension per well (20,000 cells/well) was added to a clear-bottom 96-well microplate for luminescence assays. The plated cells were incubated in the 37 °C incubator for 3 days.
# (§2) Each test compound (PG, GA, 4OMPG and 4OMGA) was initially reconstituted using DMSO at a concentration of 250 mg/mL. Serial dilutions of each compound were performed to reach concentrations of 4000 μM, 2000 μM, 1000 μM, 500 μM, 250 μM, 125 μM, 62.5 μM, 31.3 μM using warmed fresh supplemented medium with 0.4% (v/v) DMSO for all concentration levels. 100 μL of media containing the compound solution was added to the cells. Final concentrations of the compounds were 2000 μM, 1000 μM, 500 μM, 250 μM, 125 μM, 62.5 μM, 31.3 μM, 15.7 μM. AZ13599185 (tubulysin, 100 or 500 ng/mL) or cisplatin (30 μg/mL) and buthionine sulfoximine (BSO, 200 μM) were used as positive controls for CTG and GSH assays, respectively. 0.2% (v/v) DMSO in medium was used as the control for both assays, corrsponding to the final cocnetration of DMSO in the well. Three replicates for each compound at each concentration were prepared. Six replicates of positive or negative controls were prepared. Cells were incubated at 37 °C for approximately 48 h.
# (§3) Cell media were removed and cells were washed twice with 200 μL of PBS buffer per well. CTG and GSH assay reagents were added to the wells and the assays were performed following the protocols of the Promega assay kits. Briefly, to perform the CTG assay, 100 μL of CTG solution was added into each well. The plate was gently shaken and incubated in the dark for 30 min and luminescence was measured using a PerkinElmer VICTOR X3 plate reader. To perform the GSH assay, luciferin-NT substrate and glutathione S-transferase were mixed into the GSH-GLo solution. 100 μL of the mixed solution was added into each well. The plate was gently shaken and incubated in the dark for at least 30 min. 100 μL of Luciferin Detection Reagent was added per well. The plate was gently shaken and incubated in the dark for at least 15 min. Luminescence was measured using a PerkinElmer VICTOR X3 plate reader.
# (§4) For cell-based assays, data was normalized to the negative control. Cell viability and GSH level were expressed as Cell viability or GSH level=Luminescence(each well)/Luminescence(average of DMSO negative control)
# [1] = Exposure comparison of PG and phase-I and phase-II metabolites in dog and human plasma; settings: oral EC MEDI7219 tablets; samples through 8 h; human PG 800 mg (N = 8), dog PG 200 mg/kg/day (N = 6)
# Experimental: Dog blood was collected via jugular vein in potassium (K2) EDTA tubes and processed to plasma. Samples were centrifuged at approximately 3000 rpm for 5 min at approximately 4 °C within 30 min of collection. Plasma samples were acidified with 1% (v/v) formic acid (FA) to avoid degradation of PG and metabolites in plasma within 20 min of the start of centrifugation and then stored frozen (≤-60 °C). Acidified plasma was extracted using internal standard-spiked solution (100 mM ammonium bicarbonate: acetonitrile = 1:4). Samples were then centrifuged to collect supernatant, followed by drying to completion. The dried samples were reconstituted with 200 uL of 0.1% (v/v) formic acid in water. Samples were vortexed and centrifuged before injection. In order to assess potential impact of hemolysis on qualification of PG and its metabolites, hemolyzed plasma was prepared by spiking fully hemolyzed whole blood at an indicated percentage into plasma.
# Separations were conducted on a reversed-phase column (Phenomenex, Kinetex F5, 2.6 μm 100 Å, 100 × 4.6 mm) at a flow rate of 0.7 mL/min at 40 °C. Mobile phase A was 0.1% formic acid in water and mobile phase B was 0.1% formic acid in methanol. The samples were analyzed on a SCIEX 6500+ QTRAP under negative ESI mode. The total run time was 5.5 min. Eight calibration standards and three quality control (LQC, MQC and HQC) samples were used for quantification.
# The primary metabolites of PG were measured in dog and human plasma following oral administration of EC MEDI7219 tablets to examine a potential mechanism of the PG-mediated renal toxicity in dog and its possible translatability to humans. Plasma concentrations of PG, its phase-I metabolites GA and 4OMGA and phase-II glucuronide and glutathione conjugates were measured. The human and dog samples, collected through 8 h after administration, were analyzed and the results were compared (Figure , Figure S5). Based on allometric scaling method the highest daily dose administered in humans was approximately 8-fold less compared with the dose level tested in dogs.
# Human (H) data is in black. Dog (D) data is in red (study 002). Concentration (mM) is in log10 scale. Data was normalized to PG dose (mg/kg/day). N = 8 for human (PG dosed at 800 mg with MEDI7219 tablets). N = 6 for dogs (PG dosed at 200 mg/kg/day). Below LLOQ values were set to 1/2 LLOQ for the calculation.
# urine NGAL = settings: dog, in vivo
# Experimental: In the first investigative 4-week study (study 002), dogs received EC tablets consisting of different combinations of the clinical formulation excipients (Table ) with or without PG once daily for 27 days. For groups receiving tablets with PG, each EC tablet contained 100 mg PG; the number of tablets administered each day (13–20 placed in size 12 gelatin capsules) was adjusted based on the most recent body weight to yield a target PG dose level of 200 mg/kg/day. Scheduled necropsies of all surviving animals were conducted on day 28 of the dosing phase. Samples for PG toxicokinetics were collected on days 1, 14, 21, and 25 of the dosing-phase. On days 1, 14, and 21 samples were collected: predose and approximately 1, 2, 3, 4, 6, 8, 12, and 24 h postdose. Days 25: predose and approximately 1, 2, 3, 4, 6, 8, 10, and 24 h postdose. […] NGAL was measured using an ELISA method and normalized to urine creatinine. Blood samples for standard clinical chemistry parameters, including creatinine and urea nitrogen, were collected from fasted dogs twice prior to the predose phase and before daily dose administration on Days 7, 14, and 21 of the dosing phase, as well as on the day of scheduled necropsy; samples were measured on a clinical chemistry analyzer using a validated method.
# [2] = no reference given; cited from earlier work
# dog RPTECs = assay: GSH-Glo glutathione assay; format: cell-based; settings: ~48 h, high concentrations
# Experimental: as §1, §2, §3, §4
SMILES,GSH levels at high concentrations (human RPTECs),"Plasma exposure, humans compared with dogs [1]",also measured
"CCCOC(=O)c1cc(O)c(OC)c(O)c1 [Group 4OMPG, 4-O-methyl propyl gallate, reference compound]",increases of GSH,–,–
"O=C(O)c1cc(O)c(O)c(OC2OC(C(=O)O)C(O)C(O)C2O)c1 (centres unmarked) [GA-3-Gluc, gallic acid-3-glucoronide]",–,lower exposure,–
"C[C@H](CCC(=O)[O-])[C@H]1CC[C@H]2[C@@H]3[C@H](O)C[C@@H]4C[C@H](O)CC[C@]4(C)[C@H]3CC[C@]12C.[Na+] [NaCDC, sodium chenodeoxycholate]",–,–,Urine NGAL levels (urine NGAL): did not induce elevations in NGAL levels
"O=C(O)c1cc(O)c(O)c(O)c1 [GA, Gallic acid]",reduction of GSH levels,comparable between the two species,Log P [2]: 0.91; GSH levels at high concentrations (dog RPTECs): reduction of GSH levels
"COc1c(O)cc(C(=O)O)cc1O [Group 4OMGA, 4-O-methyl gallic acid]",–,comparable between the two species,–
